Results as given in ChEMBL document CHEMBL1201862, “PubChem BioAssay data set” (2004).
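Results reflect a 48-hour exposure of cells in 96-well plates to compound at five concentrations. Here, GI50 denotes the concentration required for 50% inhibition of growth.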 Activity calls are given as the source filed them. Rule as the data show it: active = GI50 up to about 1.1 µM and inactive = higher.

How the values were obtained:
Assay in all cases: inhibition of tumour cell growth, NCI panel, 48 h
BT-549 = test system: BT-549
DU-145 = test system: DU-145
HCT-15 = test system: HCT-15
HL-60 = test system: HL-60
Hs-578T = test system: Hs-578T
MDA-MB-231 = test system: MDA-MB-231
MDA-N = test system: MDA-N
MOLT-4 = test system: MOLT-4
Malme-3M = test system: Malme-3M
NCI-H226 = test system: NCI-H226
NCI-H522 = test system: NCI-H522
NCI/ADR-RES = test system: NCI/ADR-RES
PC-3 = test system: PC-3
SF-268 = test system: SF-268
SK-MEL-28 = test system: SK-MEL-28
SK-MEL-2 = test system: SK-MEL-2
SNB-75 = test system: SNB-75
SR = test system: SR
TK-10 = test system: TK-10
UACC-62 = test system: UACC-62

| Structure (SMILES) | GI50 (BT-549) | GI50 (DU-145) | GI50 (HCT-15) [µM] | GI50 (HL-60) | GI50 (Hs-578T) | GI50 (MDA-MB-231) | GI50 (MDA-N) | GI50 (MOLT-4) | GI50 (Malme-3M) | GI50 (NCI-H226) | GI50 (NCI-H522) | GI50 (NCI/ADR-RES) | GI50 (PC-3) | GI50 (SF-268) | GI50 (SK-MEL-28) | GI50 (SK-MEL-2) | GI50 (SNB-75) | GI50 (SR) | GI50 (TK-10) | GI50 (UACC-62) |
| --- | --- | --- | --- | --- | --- | --- | --- | --- | --- | --- | --- | --- | --- | --- | --- | --- | --- | --- | --- | --- |
| CC(=O)OCC12C(OC(C)=O)C[C@@H](C)C3(CC(c4ccoc4)OC3=O)C1CCC(O)C21CO1 (stereo not given in full) | > 100 µM (inactive) | > 100 µM (inactive) | > 100 | > 100 µM (inactive) | > 100 µM (inactive) | > 100 µM (inactive) | > 100 µM (inactive) | > 100 µM (inactive) | > 100 µM (inactive) | > 100 µM (inactive) | > 100 µM (inactive) | > 100 µM (inactive) | > 100 µM (inactive) | > 100 µM (inactive) | > 100 µM (inactive) | > 100 µM (inactive) | > 100 µM (inactive) | > 100 µM (inactive) | > 100 µM (inactive) | > 100 µM (inactive) |
| COc1cc([C@H]2Oc3c(OC)cc(CCCO)cc3[C@@H]2CO)ccc1O [DIHYDRODEHYDRODICONIFERY ALCOHOL] | 94.4 µM (inactive) | > 100 µM (inactive) | > 100 | > 100 µM (inactive) | 47.2 µM (inactive) | 27.2 µM (inactive) | > 100 µM (inactive) | 51.6 µM (inactive) | > 100 µM (inactive) | > 100 µM (inactive) | 69.2 µM (inactive) | > 100 µM (inactive) | > 100 µM (inactive) | > 100 µM (inactive) | > 100 µM (inactive) | > 100 µM (inactive) | 44.9 µM (inactive) | > 100 µM (inactive) | > 100 µM (inactive) | 55.3 µM (inactive) |
| O=C1C(Cl)=C(Nc2ccc(OC(F)(F)F)cc2)C(=O)c2c(O)ccc(O)c21 | 0.855 µM (active) | 0.705 µM (active) | 0.366 | 0.182 µM (active) | 0.719 µM (active) | 0.443 µM (active) | 2.22 µM (inactive) | 0.359 µM (active) | 1.01 µM (active) | 1.5 µM (inactive) | 0.571 µM (active) | 1.74 µM (inactive) | 0.679 µM (active) | 0.594 µM (active) | 0.762 µM (active) | 0.292 µM (active) | 0.735 µM (active) | 0.275 µM (active) | 1.48 µM (inactive) | 0.975 µM (active) |
| O=[N+]([O-])C(=C(Cl)Cl)C(Cl)=C(Cl)Cl | 0.124 µM (active) | 8.85 µM (inactive) | 0.156 | < 0.0194 µM (active) | 0.485 µM (active) | 0.505 µM (active) | 0.206 µM (active) | 0.0166 µM (active) | 0.0454 µM (active) | 0.834 µM (active) | < 0.01 µM (active) | 1.36 µM (inactive) | 0.778 µM (active) | 0.701 µM (active) | 0.105 µM (active) | 1.68 µM (inactive) | 1.39 µM (inactive) | 0.13 µM (active) | 0.372 µM (active) | 0.433 µM (active) |
| CC[N+]1(C)CCC(O)(/C=C/c2ccccc2)C(C(=O)/C=C/c2ccccc2)C1 (stereo not given) | 15.7 µM (inactive) | 19.1 µM (inactive) | 4.54 | 2.31 µM (inactive) | 28.4 µM (inactive) | 10.8 µM (inactive) | 6.11 µM (inactive) | 2.13 µM (inactive) | 15 µM (inactive) | 14.7 µM (inactive) | 1.99 µM (inactive) | 30.6 µM (inactive) | 14.6 µM (inactive) | 15.6 µM (inactive) | 7.4 µM (inactive) | 19.8 µM (inactive) | 14.7 µM (inactive) | 2.34 µM (inactive) | 7.28 µM (inactive) | 16.9 µM (inactive) |
| C[C@H]1CC[C@H](NC(=O)N(CCCl)N=O)CC1 | 24.7 µM (inactive) | 82.4 µM (inactive) | 40.6 | 14.4 µM (inactive) | 57.4 µM (inactive) | 48 µM (inactive) | 44.8 µM (inactive) | 18.3 µM (inactive) | 47.9 µM (inactive) | 59 µM (inactive) | 40 µM (inactive) | 47.1 µM (inactive) | 47.9 µM (inactive) | 22.1 µM (inactive) | 46.2 µM (inactive) | 46.5 µM (inactive) | 31.1 µM (inactive) | 10.6 µM (inactive) | 63.4 µM (inactive) | 14.3 µM (inactive) |
| Cc1ccccc1C1=C/C(=C(\SS/C(C(=O)c2ccc(OCC(=O)O)c(Cl)c2Cl)=C2\C=C(c3ccccc3C)SS2)C(=O)c2ccc(OCC(=O)O)c(Cl)c2Cl)SS1 | 33.3 µM (inactive) | 39.4 µM (inactive) | 24 | 2.96 µM (inactive) | 21.2 µM (inactive) | 22.6 µM (inactive) | 34.1 µM (inactive) | 19.9 µM (inactive) | 40.1 µM (inactive) | 17.9 µM (inactive) | 4.09 µM (inactive) | 63 µM (inactive) | 6.92 µM (inactive) | 18 µM (inactive) | 26.4 µM (inactive) | 21.4 µM (inactive) | 34.7 µM (inactive) | 24.1 µM (inactive) | 35.9 µM (inactive) | 18 µM (inactive) |
| CC(C)(C)OC(=O)N/N=C(/N)Cc1ccccc1 | > 100 µM (inactive) | > 100 µM (inactive) | > 100 | > 100 µM (inactive) | > 100 µM (inactive) | > 100 µM (inactive) | > 100 µM (inactive) | > 100 µM (inactive) | > 100 µM (inactive) | > 100 µM (inactive) | > 100 µM (inactive) | > 100 µM (inactive) | > 100 µM (inactive) | > 100 µM (inactive) | > 100 µM (inactive) | > 100 µM (inactive) | > 100 µM (inactive) | > 100 µM (inactive) | > 100 µM (inactive) | > 100 µM (inactive) |
| C=C(CC)C(=O)c1ccc(OCC(=O)O)c(Cl)c1Cl [ETHACRYNIC ACID] | 4.99 µM (inactive) | 29.5 µM (inactive) | 22.6 | 28.3 µM (inactive) | 20.5 µM (inactive) | 19.6 µM (inactive) | 23.1 µM (inactive) | 20.2 µM (inactive) | 16.9 µM (inactive) | 15.5 µM (inactive) | 14.8 µM (inactive) | 26.7 µM (inactive) | 24.9 µM (inactive) | 16.7 µM (inactive) | 17.6 µM (inactive) | 17.1 µM (inactive) | 21.8 µM (inactive) | 31.6 µM (inactive) | 16.1 µM (inactive) | 15.2 µM (inactive) |
| COc1cccc(-c2cc(O)c3cc(N4CCOCC4)ccc3n2)c1 | 0.964 µM (active) | 0.038 µM (active) | 0.0383 | 0.0194 µM (active) | 0.0184 µM (active) | 0.13 µM (active) | 0.0069 µM (active) | 0.0391 µM (active) | 0.0131 µM (active) | 0.0383 µM (active) | 0.0158 µM (active) | 0.0845 µM (active) | 0.0364 µM (active) | 0.0552 µM (active) | 0.0748 µM (active) | 0.0313 µM (active) | 0.0377 µM (active) | 0.0158 µM (active) | 4.26 µM (inactive) | 0.0258 µM (active) |
